Test results published in patent US20090270459A1, “Flea control agent containing N-Substituted indole derivative” (priority 2001, published 2009).

Legend:
cat = assay: Toxicity to cat, spot-on dropping of liquid drops; settings: for Clinical symptom: 0.5 ml spot-on, cat, listed as No. 17
Source text: After the dropping, the clinical symptom of the cat was observed.

[1] = test system: adult cat fleas made parasitic on the cat body; assay: Effect on cat flea (3): residual effect after spot-on of 10% liquid drops on cat, re-infestation; assay type: in vivo, cat flea (Ctenocephalides felis) on cat; settings: for Number of living fleas on the second day after inoculation: 30 fleas inoculated
Source text: After the dropping, 30 adult cat fleas were made parasitic on the cat body after a predetermined number of weeks. On the second day after this inoculation with the parasites, the living fleas on the cat body were counted by the use of a flea-removing comb.

std:ddy strain male mice = assay: Toxicity to mouse, administration into the stomach; assay type: in vivo
Method: The compound listed in Table 1 or Fipronil was dissolved in olive oil to a predetermined concentration, and the resulting solution was directly administered into the stomachs of std:ddy strain male mice by the use of a probe. The dose was 30 mg/kg or 100 mg/kg. Whether the mice were alive or dead was observed 3 hours, 1 day, 7 days and 14 days after the administration.

[2] = test system: cat fleas parasitic on a cat; assay: Effect on cat flea (2): spot-on of 10% liquid drops on flea-infested cat, cumulative fall rate; assay type: in vivo, cat flea (Ctenocephalides felis) on cat; settings: 0.5 ml of 10% solution spot-on
Method: Fleas that had fallen from the cat body were counted at intervals of 2 hours until 8 hours after the dropping of the solution, and the cumulative fall rate was calculated. In addition, fleas that had fallen in 24 hours were counted and the cumulative fall rate after 1 day was calculated. Two days after the dropping, the living fleas on the cat body were counted by the use of a flea-removing comb.

adult cat fleas = assay: Effect on cat flea (1): glass tube residue contact test, knock-down and mortality; assay type: in vivo, cat flea (Ctenocephalides felis); design: After 3 hours (KD) knocking-down rate: unit not given here
Method: Each compound was dissolved in acetone to a predetermined concentration and 0.1 ml of the resulting solution was dropped into the bottom of a glass tube with a diameter of 2.8 cm and a height of 12 cm and air-dried. After the air-drying, 10 adult cat fleas were placed in the glass tube and the glass tube was closed with nylon mesh and allowed to stand under conditions of a room temperature of 26° C. and a humidity of 80%. The knocked-down (KD) fleas after 3 hours and the dead and alive after 24 hours and 48 hours were counted, and the knocking-down rate and the mortality were calculated. Fipronil was used as a positive control. In a control experiment, no treatment with an agent was carried out.

FC(Cl)(Cl)Sc1cn(-c2c(Cl)cc(C(F)(F)F)cc2Cl)c2ccccc12 [Compound 17, 1-(2,6-dichloro-4-trifluoromethylphenyl)-3-(dichlorofluoromethylthio)indole]
Toxicity to cat (cat; 10, 20 or 30% liquid drops spot-on): only low toxicity
Clinical symptom (cat; dropping concentration 10%): no abnormal sign
Clinical symptom (cat; dropping concentration 20%): no abnormal sign
Clinical symptom (cat; dropping concentration 30%): no abnormal sign
Duration of the aftereffect ([1]; 0.5 ml of 10% solution spot-on, cat): about 6 weeks
Number of living fleas on the second day after inoculation ([1]; 1 week after administration, 0.5 ml of 10% solution): 0
Number of living fleas on the second day after inoculation ([1]; 2 weeks after administration): 0
Number of living fleas on the second day after inoculation ([1]; 4 weeks after administration): 0
Number of living fleas on the second day after inoculation ([1]; 6 weeks after administration): 6
Number of living fleas on the second day after inoculation ([1]; 6 weeks after administration, listed as No. 17): six
Number of living fleas on the second day after inoculation ([1]; 8 weeks after administration): 13
Number of living fleas on the second day after inoculation ([1]; 8 weeks after administration, listed as No. 17): thirteen
Killing of the fleas until 4 weeks after the dropping ([1]; until 4 weeks after the dropping): completely killed the fleas
Cumulative mortality After 1 day (std:ddy strain male mice; 30 mg/kg): 0/5
Cumulative mortality After 7 days (std:ddy strain male mice; 30 mg/kg): 0/5
Cumulative mortality After 14 days (std:ddy strain male mice; 30 mg/kg): 0/5
Cumulative mortality After 3 hours (std:ddy strain male mice; 30 mg/kg into the stomach, in olive oil, male mice): 0/5
Cumulative mortality After 3 hours (std:ddy strain male mice; 100 mg/kg): 0/5
Cumulative mortality After 1 day (std:ddy strain male mice; 100 mg/kg): 0/5
Cumulative mortality After 7 days (std:ddy strain male mice; 100 mg/kg): 0/5
Cumulative mortality After 14 days (std:ddy strain male mice; 100 mg/kg): 0/5
Fate of the fleas that had fallen from the cat body [2]: died within several hours
Cumulative fall rate (%) After 4 hours ([2]; after 4 hours): 15%
Cumulative fall rate (%) After 6 hours ([2]; after 6 hours): 37%
Cumulative fall rate (%) After 8 hours ([2]; after 8 hours): 47%
Cumulative fall rate (%) After 24 hours ([2]; after 24 hours): 100%
Cumulative fall rate (%) After 2 hours ([2]; cat with 30 cat fleas, after 2 hours): 0%
After 3 hours (KD) knocking-down rate (adult cat fleas; 0.001 mg/tube): 0
After 1 day (mortality) (adult cat fleas; 0.001 mg/tube): 10%
After 2 days (mortality) (adult cat fleas; 0.001 mg/tube): 40%
After 3 hours (KD) knocking-down rate (adult cat fleas; 0.01 mg/tube): 0
After 1 day (mortality) (adult cat fleas; 0.01 mg/tube): 70%
After 2 days (mortality) (adult cat fleas; 0.01 mg/tube): 100%
After 3 hours (KD) knocking-down rate (adult cat fleas; 0.1 mg/tube): 0
After 1 day (mortality) (adult cat fleas; 0.1 mg/tube): 100%
After 2 days (mortality) (adult cat fleas; 0.1 mg/tube): 100%
After 1 day (mortality) (adult cat fleas; 1 mg/tube): 100%
After 2 days (mortality) (adult cat fleas; 1 mg/tube): 100%
After 3 hours (KD) knocking-down rate (adult cat fleas; 1 mg/tube, 10 adult cat fleas, 26° C., humidity 80%): 50
